Measurements from PubChem BioAssay AID330 (DTP/NCI, 2004).
Where “and” joins values, the source holds several entries; their conditions need not be identical. Equal entries are not always repeated. Inconclusive results and toxic doses are left out. How the source made its calls: active means survival T/C of 150% or more; inactive means T/C below 125% in these data.

Tested on: P388 leukemia ip, CD2F1 mice, survival T/C
Assay: NCI In Vivo Anticancer Drug Screen. Data for tumor model P388 Leukemia (intraperitoneal) in CD2F1 (CDF1) mice
Details: endpoint: median survival time, higher = longer survival
In short: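 Mice carrying the transplanted tumor received test compound or vehicle. Survival was recorded in each group, and the value is the treated-group measurement divided by that of the vehicle-treated control group.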

[1] = dose: 60.0 mg/kg/injection, schedule: Q01DX005 (ip), vehicle: saline with Tween-80
[2] = dose: 120.0 mg/kg/injection, schedule: Q01DX005 (ip), vehicle: saline with Tween-80
[3] = dose: 240.0 mg/kg/injection, schedule: Q01DX005 (ip), vehicle: saline with Tween-80
[4] = dose: 50.0 mg/kg/injection, schedule: Q01DX009 (ip), vehicle: saline
[5] = dose: 100.0 mg/kg/injection, schedule: Q01DX009 (ip), vehicle: saline
[6] = dose: 200.0 mg/kg/injection, schedule: Q01DX009 (ip), vehicle: saline
[7] = dose: 50.0 mg/kg/injection, schedule: Q01DX009 (ip), vehicle: saline with Tween-80
[8] = dose: 100.0 mg/kg/injection, schedule: Q01DX009 (ip), vehicle: saline with Tween-80
[9] = dose: 200.0 mg/kg/injection, schedule: Q01DX009 (ip), vehicle: saline with Tween-80
[10] = dose: 100.0 mg/kg/injection, schedule: Q01DX001 (ip), vehicle: saline
[11] = dose: 200.0 mg/kg/injection, schedule: Q01DX001 (ip), vehicle: saline
[12] = dose: 400.0 mg/kg/injection, schedule: Q01DX001 (ip), vehicle: saline
[13] = dose: 12.5 mg/kg/injection, schedule: Q01DX009 (ip), vehicle: saline
[14] = dose: 25.0 mg/kg/injection, schedule: Q01DX009 (ip), vehicle: saline
[15] = dose: 25.0 mg/kg/injection, schedule: Q01DX009 (ip), vehicle: Klucel (hydroxypropylcellulose) (HPC)
[16] = dose: 100.0 mg/kg/injection, schedule: Q01DX009 (ip), vehicle: Klucel (hydroxypropylcellulose) (HPC)
[17] = dose: 6.25 mg/kg/injection, schedule: Q01DX009 (ip), vehicle: Klucel (hydroxypropylcellulose) (HPC)
[18] = dose: 50.0 mg/kg/injection, schedule: Q01DX005 (ip), vehicle: Klucel (hydroxypropylcellulose) (HPC)
[19] = dose: 100.0 mg/kg/injection, schedule: Q01DX005 (ip), vehicle: Klucel (hydroxypropylcellulose) (HPC)
[20] = dose: 200.0 mg/kg/injection, schedule: Q01DX005 (ip), vehicle: Klucel (hydroxypropylcellulose) (HPC)

Measured: T/C

CC(C)(C)OC(=O)NCCCCC(NC(=O)OCc1ccccc1)C(=O)ON1C(=O)CCC1=O (configuration not stated)
inactive: dose: 50.0 mg/kg/injection, schedule: Q01DX005 (ip), vehicle: saline with Tween-80 101 % of control | dose: 100.0 mg/kg/injection, schedule: Q01DX005 (ip), vehicle: saline with Tween-80 102 % of control | dose: 200.0 mg/kg/injection, schedule: Q01DX005 (ip), vehicle: saline with Tween-80 107 % of control

CCOC(=O)c1sc(C(=O)OCC)c2c1-c1cccc3cccc-2c13
inactive: [1] 100 % of control | [2] 99 % of control | [3] 97 % of control

CCCOCC(=O)OC
inactive: [4] 98 % of control | [5] 99 % of control | [6] 100 % of control

O=[N+]([O-])c1ccc(N2N=N[C@@H]3C4CCC(C4O)[C@@H]32)cc1 (some centres not stated)
inactive: [7] 88 % of control | [8] 97 % of control | [9] 89 % of control

CN(C)Cc1c(N=Nc2cccc3c(N=Nc4[nH]c5ccccc5c4CN(C)C)cccc23)[nH]c2ccccc12
inactive: [7] 110 % of control | [8] 108 % of control | [9] 89 % of control

CC(C)SC(=S)Nc1cc(C(F)(F)F)ccc1Cl
inactive: [4] 100 % of control | [5] 101 % of control | [6] 99 % of control

[Se]=[Mo]=[Se]
inactive: [1] 96 % of control | [2] 95 % of control | [3] 97 % of control

C[n+]1ccc(C#N)c2ccccc21
inactive: dose: 3.75 mg/kg/injection, schedule: Q01DX009 (ip), vehicle: saline with Tween-80 95 % of control | dose: 7.5 mg/kg/injection, schedule: Q01DX009 (ip), vehicle: saline with Tween-80 109 % of control | dose: 15.0 mg/kg/injection, schedule: Q01DX009 (ip), vehicle: saline with Tween-80 118 % of control

COCC1(C)CCCC2(C)C1CCC1(O)CCCCC12O (configuration not stated)
inactive: [10] 100 % of control | [11] 100 % of control | [12] 108 % of control

COC(NC(N)=O)C(=O)O (configuration not stated)
inactive: [7] 99 % of control | [8] 99 % of control | [9] 99 % of control

O=C(c1ccccc1)c1cc([N+](=O)[O-])cc([N+](=O)[O-])c1
inactive: [8] 104 % of control | [9] 97 % of control | dose: 400.0 mg/kg/injection, schedule: Q01DX009 (ip), vehicle: saline with Tween-80 97 % of control

NNC(=O)C(=O)Nc1nccs1
inactive: [1] 94 % of control | [2] 95 % of control

Clc1cc2nsnc2cc1Cl
inactive: dose: 50.0 mg/kg/injection, schedule: Q04DX003 (ip), vehicle: saline 100 % of control | dose: 100.0 mg/kg/injection, schedule: Q04DX003 (ip), vehicle: saline 94 % of control | dose: 200.0 mg/kg/injection, schedule: Q04DX003 (ip), vehicle: saline 104 % of control | dose: 400.0 mg/kg/injection, schedule: Q04DX003 (ip), vehicle: saline 101 % of control

COCC1(C)CCCC2(C)C1CCC13CCC(OC)CC12O3 (configuration not stated)
inactive: [10] 115 % of control | [11] 106 % of control | [12] 94 % of control

C(=C\c1ccc2c(c1)OCO2)/c1ccnnc1
inactive: [4] 100 % of control | [5] 97 % of control | [6] 100 % of control

CCCCCCCCCCCCC1=NCC[N+]1(CCO)CC(O)COc1cc(Cl)c(Cl)cc1Cl (configuration not stated)
inactive: [13] 105 % of control | [14] 105 % of control | [4] 102 % of control and 95 % of control | [5] 90 % of control

CCCN1c2c3c(O)c4c(O)c(C)c5c(c4c2O)C(=O)C(C)(O/C=C/C(OC)C(C)C(OC(C)=O)C(C)C(O)C(C)C(O)C(C)/C=C/C=C(/C)C(=O)N3C1C)O5 (configuration not stated)
inactive: [15] 96 % of control | dose: 50.0 mg/kg/injection, schedule: Q01DX009 (ip), vehicle: Klucel (hydroxypropylcellulose) (HPC) 101 % of control | [16] 93 % of control | dose: 200.0 mg/kg/injection, schedule: Q01DX009 (ip), vehicle: Klucel (hydroxypropylcellulose) (HPC) 90 % of control

O=[N+]([O-])c1cnc(Sc2cncc[n+]2[O-])s1
inactive: dose: 1.56 mg/kg/injection, schedule: Q01DX009 (ip), vehicle: Klucel (hydroxypropylcellulose) (HPC) 100 % of control | dose: 3.12 mg/kg/injection, schedule: Q01DX009 (ip), vehicle: Klucel (hydroxypropylcellulose) (HPC) 93 % of control | [17] 102 % of control and 90 % of control

COc1ccc(C(c2cc(C(C)(C)C)cc(C(C)(C)C)c2O)N2CCOCC2)cc1 (configuration not stated)
inactive: dose: 50.0 mg/kg/injection, schedule: Q01DX005 (ip), vehicle: distilled water + alcohol 99 % of control | dose: 100.0 mg/kg/injection, schedule: Q01DX005 (ip), vehicle: distilled water + alcohol 103 % of control | dose: 200.0 mg/kg/injection, schedule: Q01DX005 (ip), vehicle: distilled water + alcohol 99 % of control

Cc1ccc(/C2=C(\c3ccc(C)cc3)N(c3ccc(C)cc3)CCCCN2c2ccc(C)cc2)cc1
inactive: dose: 100.0 mg/kg/injection, schedule: Q01DX001 (ip), vehicle: Klucel (hydroxypropylcellulose) (HPC) 92 % of control | dose: 200.0 mg/kg/injection, schedule: Q01DX001 (ip), vehicle: Klucel (hydroxypropylcellulose) (HPC) 87 % of control | dose: 400.0 mg/kg/injection, schedule: Q01DX001 (ip), vehicle: Klucel (hydroxypropylcellulose) (HPC) 92 % of control

CCCCC[CH2][GeH]([CH2]CCCCC)[O][GeH]([CH2]CCCCC)[CH2]CCCCC
inactive: [13] 100 % of control and 97 % of control | [14] 104 % of control and 90 % of control | [4] 100 % of control and 101 % of control and 106 % of control | [5] 120 % of control and 97 % of control

CN(C)c1ccc(/C=C/c2ccc(Br)cc2)cc1
inactive: [7] 89 % of control | [8] 88 % of control | [9] 89 % of control

CCOC(=O)C(CCc1ccccn1)C(C)=O (configuration not stated)
inactive: [1] 94 % of control | [2] 98 % of control | [3] 98 % of control

Cc1sc(NCc2ccccc2)c(C#N)c1C
inactive: [17] 101 % of control | dose: 12.5 mg/kg/injection, schedule: Q01DX009 (ip), vehicle: Klucel (hydroxypropylcellulose) (HPC) 97 % of control | [15] 93 % of control | [16] 86 % of control

CCn1ccc(NS(=O)(=O)c2ccc(N)cc2)nc1=O
inactive: [18] 98 % of control | [19] 105 % of control | [20] 100 % of control

Nc1nc2c(C(=O)c3cccs3)nnn2c2cccc(Cl)c12
inactive: [1] 99 % of control | [2] 100 % of control | [3] 104 % of control

OCCNc1cc(Cl)c(N=C2N(Cc3ccccc3)CCN2Cc2ccccc2)c(Cl)c1
inactive: [18] 102 % of control | [19] 97 % of control | [20] 100 % of control

O=C(/C=C/c1ccccc1)Oc1cc([N+](=O)[O-])cc([N+](=O)[O-])c1
inactive: dose: 100.0 mg/kg/injection, schedule: Q04DX002 (ip), vehicle: saline with Tween-80 112 % of control | dose: 200.0 mg/kg/injection, schedule: Q04DX002 (ip), vehicle: saline with Tween-80 105 % of control

Cc1ccc(S(=O)(=O)N(CCC(c2ccccc2)c2ccccc2)S(=O)(=O)c2ccc(C)cc2)cc1
inactive: dose: 25.0 mg/kg/injection, schedule: Q01DX009 (ip), vehicle: saline with Tween-80 102 % of control | [7] 98 % of control | [8] 100 % of control

COc1cc2c(cc1OC(C)=O)C(=O)C(Br)CCC2 (configuration not stated)
inactive: [8] 89 % of control | [9] 86 % of control
